Assay [1] concerns the target 72 kDa type IV collagenase (Homo sapiens) (UniProt P08253). Nature of the assay: Inhibition of MMP2 (unknown origin) at 30 uM.
The test system of assay [2] is Escherichia coli. The assay is described as follows: Antimicrobial activity against Escherichia coli ARC523 W3110 harboring mutant by CLSI dilution method. The assay is classed as functional.
The subject of assay [3] is Escherichia coli. Nature of the assay: Antimicrobial activity against TolC-deficient Escherichia coli ARC524 W3110 harboring mutant by CLSI dilution method. It is filed as functional.
Assay [4] concerns Pseudomonas aeruginosa. The assay is described as follows: Antimicrobial activity against Pseudomonas aeruginosa PAO1 ARC545 by CLSI dilution method. It is filed as functional.
Assay [5] relates to Pseudomonas aeruginosa. The assay is described as follows: Antimicrobial activity against MexABCDXY-deficient Pseudomonas aeruginosa PAO1 ARC546 by CLSI dilution method. The assay is classed as functional.
Assay [6] concerns the target Collagenase 3 (Homo sapiens) (UniProt P45452). Nature of the assay: Inhibition of MMP13 (unknown origin) at 30 uM.
Assay [7] shares this target. Nature of the assay: Inhibition of MMP13 (unknown origin) at 10 uM.
For assay [8], the target named is T1, UDP-3-O-acyl-N-acetylglucosamine deacetylase (Pseudomonas aeruginosa (strain ATCC 15692 / PAO1 / 1C / PRS 101 / LMG12228), UniProt P47205).
T1 sequence (P47205 whole entry): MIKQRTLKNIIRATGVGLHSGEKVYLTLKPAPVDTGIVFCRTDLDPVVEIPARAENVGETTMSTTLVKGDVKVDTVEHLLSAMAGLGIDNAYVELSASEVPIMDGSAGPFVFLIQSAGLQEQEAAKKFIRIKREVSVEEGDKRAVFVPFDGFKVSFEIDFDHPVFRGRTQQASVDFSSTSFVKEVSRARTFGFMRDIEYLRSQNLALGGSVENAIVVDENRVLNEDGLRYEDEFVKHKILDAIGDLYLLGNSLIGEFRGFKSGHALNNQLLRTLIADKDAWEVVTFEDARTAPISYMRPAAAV
The assay is described as follows: Inhibition of Pseudomonas aeruginosa LpxC using UDP-3-O-(R-3-hydroxydecanoyl)-N-acetylglucosamine as substrate preincubated for 20 mins before substrate addition by LC/MS/MS analysis.

For assay [9], the target named is 72 kDa type IV collagenase (Homo sapiens) (UniProt P08253). The assay is described as follows: Inhibition of MMP2 (unknown origin) at 10 uM.
Sequence of 72 kDa type IV collagenase (Homo sapiens) (P08253 110-660 limits assumed): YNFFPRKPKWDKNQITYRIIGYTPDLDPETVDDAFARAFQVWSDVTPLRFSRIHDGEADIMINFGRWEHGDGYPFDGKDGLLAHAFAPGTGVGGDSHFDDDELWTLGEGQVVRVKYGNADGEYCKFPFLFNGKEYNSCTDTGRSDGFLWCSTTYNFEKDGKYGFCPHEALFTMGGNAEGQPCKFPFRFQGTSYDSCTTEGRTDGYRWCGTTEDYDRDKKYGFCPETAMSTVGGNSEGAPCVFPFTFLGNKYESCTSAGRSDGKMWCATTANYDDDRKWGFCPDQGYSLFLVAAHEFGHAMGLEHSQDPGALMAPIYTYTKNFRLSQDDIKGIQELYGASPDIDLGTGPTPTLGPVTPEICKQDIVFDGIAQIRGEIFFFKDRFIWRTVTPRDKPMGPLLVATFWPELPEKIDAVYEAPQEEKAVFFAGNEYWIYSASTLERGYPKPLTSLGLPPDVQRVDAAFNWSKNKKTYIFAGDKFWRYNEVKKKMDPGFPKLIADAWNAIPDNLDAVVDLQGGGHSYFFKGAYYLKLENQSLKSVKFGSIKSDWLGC
The target of assay [10] is Collagenase 3 (Homo sapiens) (UniProt P45452). Nature of the assay: Inhibition of MMP13 (unknown origin) at 15 uM.

Values after ≈ are worked out from the molar mass of the structure shown.

One may read the inhibition as the percentage by which the read-out fell short of the control. The low end stands for a weak effect, the high end for a strong effect. As a reminder, the MIC is the smallest concentration in the dilution series that meets the test's criterion for growth inhibition. Higher therefore signals a need for much substance. On to `C[C@@H](O)[C@H](NC(=O)c1ccc(C#Cc2ccc(CN3CCOCC3)cc2)cc1)C(=O)NO`, for which the inhibition in [1] was found to be 12%; in assay [6], 30%. The MIC in the assay on Escherichia coli [2] is under 0.2 µM; against Escherichia coli [3] it was under 0.2 µM; against Pseudomonas aeruginosa [4], 1.56 µM (≈ 0.682 µg/mL); against Pseudomonas aeruginosa [5] it was under 0.2 µM.

Usually IC50 stands for the concentration that gives 50% inhibition. Lower therefore signals greater potency in that assay. For `C[C@@H]1CN(Cc2ccc(C#Cc3ccc(OCC4(C(=O)NO)CCOCC4)cc3)cc2)C[C@H](C)O1`, the MIC against Escherichia coli [2] was 12.5 µM (≈ 5.98 µg/mL); in the assay on Escherichia coli [3], 0.39 µM (≈ 0.187 µg/mL); against Pseudomonas aeruginosa [4] it was over 200 µM; in the assay with Pseudomonas aeruginosa [5], 3.13 µM (≈ 1.5 µg/mL). For the same compound, the inhibition in [7] was 75%; in assay [9], 92%. Also, in [8], inhibition was half-maximal at 2.6 nM (IC50).

On to `O=C(NO)C1(COc2ccc(C#Cc3ccc(CN4CCN(CCn5ccnc5)CC4)cc3)cc2)CCOCC1`, for which the MIC stood at 6.25 µM (≈ 3.4 µg/mL) against Escherichia coli [2], 0.78 µM (≈ 0.424 µg/mL) in the assay on Escherichia coli [3], 50 µM (≈ 27.2 µg/mL) against Pseudomonas aeruginosa [4] and 0.78 µM (≈ 0.424 µg/mL) in the assay with Pseudomonas aeruginosa [5]. For the same compound, the inhibition in [7] turned out to be 80%; in assay [9], 93%. The compound also registered an IC50 in assay [8] of 2 nM.

Regarding `COC1CCC(COc2ccc(C#Cc3ccc(CN4CCOCC4)cc3)cc2)(C(=O)NO)CC1` (stereo not given), the MIC with Escherichia coli [2] is 100 µM (≈ 47.9 µg/mL); in the assay with Escherichia coli [3], 6.25 µM (≈ 2.99 µg/mL); in the assay with Pseudomonas aeruginosa [4], over 200 µM; in the assay on Pseudomonas aeruginosa [5], 3.13 µM (≈ 1.5 µg/mL). In assay [8], this compound came in with a half-inhibitory concentration (IC50) of 8.6 nM.

With `O=C(NO)C1(COc2ccc(C#Cc3ccc(CN4CCN(CCN5CCOCC5)CC4)cc3)cc2)CCOCC1`, the MIC was 25 µM (≈ 14.1 µg/mL) in the assay with Escherichia coli [2], 1.56 µM (≈ 0.878 µg/mL) in the assay on Escherichia coli [3], 50 µM (≈ 28.1 µg/mL) in the assay on Pseudomonas aeruginosa [4] and 0.78 µM (≈ 0.439 µg/mL) against Pseudomonas aeruginosa [5]. The compound further returned a half-maximal inhibitory concentration (IC50) in assay [8] of 2.7 nM.

For the compound `O=C(NO)C1(COc2ccc(C#CC#Cc3ccccc3)cc2)CCOCC1`, the MIC was 200 µM (≈ 75.1 µg/mL) with Escherichia coli [2], 50 µM (≈ 18.8 µg/mL) against Escherichia coli [3], over 200 µM in the assay on Pseudomonas aeruginosa [4] and over 200 µM in the assay on Pseudomonas aeruginosa [5]. The same compound displayed an IC50 in [8] of 33 nM.

For `O=C(NO)C1(COc2ccc(OCc3ccccc3)cc2)CCOCC1`, the MIC is over 200 µM with Escherichia coli [2], 200 µM (≈ 71.5 µg/mL) in the assay on Escherichia coli [3], 200 µM (≈ 71.5 µg/mL) in the assay with Pseudomonas aeruginosa [4] and 6.25 µM (≈ 2.23 µg/mL) in the assay with Pseudomonas aeruginosa [5]. For the same compound, in assay [8], half-maximal inhibition (IC50) required 14 nM.

Turning to `O=C(NO)C1(CSc2ccc(Oc3ccc(Cl)cc3)cc2)CCOCC1`, the MIC against Escherichia coli [2] is over 200 µM; with Escherichia coli [3] it was 50 µM (≈ 19.7 µg/mL); against Pseudomonas aeruginosa [4], 50 µM (≈ 19.7 µg/mL); against Pseudomonas aeruginosa [5], 6.25 µM (≈ 2.46 µg/mL). In assay [10], this compound came in with an inhibition of 99%. For the same compound, in assay [8], half-maximal inhibition (IC50) required 7.4 nM.

In the case of `O=C(NO)C1(COc2ccc(Oc3ccccc3)cc2)CCOCC1`, the MIC is over 200 µM against Escherichia coli [2], over 200 µM against Escherichia coli [3], over 200 µM in the assay with Pseudomonas aeruginosa [4] and 25 µM (≈ 8.58 µg/mL) in the assay on Pseudomonas aeruginosa [5]. In assay [8], this compound came in with an IC50 of 92 nM.

Take `O=C(NO)C1(COc2ccc(-c3ccccc3)cc2)CCOCC1`: the MIC against Escherichia coli [2] was over 200 µM; against Escherichia coli [3], over 200 µM; in the assay with Pseudomonas aeruginosa [4] it was 100 µM (≈ 32.7 µg/mL); in the assay on Pseudomonas aeruginosa [5] it was 6.25 µM (≈ 2.05 µg/mL). The same compound had an IC50 in [8] of 8.7 nM.

On to `CC(C)(O)C#CC#Cc1ccc(OCC2(C(=O)NO)CCOCC2)cc1`, for which the MIC was 200 µM (≈ 71.5 µg/mL) against Escherichia coli [2], 6.25 µM (≈ 2.23 µg/mL) against Escherichia coli [3], over 200 µM in the assay on Pseudomonas aeruginosa [4] and 25 µM (≈ 8.94 µg/mL) in the assay on Pseudomonas aeruginosa [5]. The compound also came in with an IC50 in assay [8] of 139 nM.

On to `COc1ccc(CNCc2ccc(C#Cc3ccc(OCC4(C(=O)NO)CCOCC4)cc3)cc2)cc1`, for which the MIC is 50 µM (≈ 25 µg/mL) with Escherichia coli [2], 12.5 µM (≈ 6.26 µg/mL) against Escherichia coli [3], 100 µM (≈ 50.1 µg/mL) against Pseudomonas aeruginosa [4] and 6.25 µM (≈ 3.13 µg/mL) against Pseudomonas aeruginosa [5]. Also, in assay [8], the IC50 worked out at 10 nM.

With `CN(C)CC1CN(Cc2ccc(C#Cc3ccc(OCC4(C(=O)NO)CCOCC4)cc3)cc2)CCO1` (stereo not given), the minimum inhibitory concentration (MIC) against Escherichia coli [2] was 200 µM (≈ 102 µg/mL); in the assay on Escherichia coli [3], 6.25 µM (≈ 3.17 µg/mL); against Pseudomonas aeruginosa [4], 100 µM (≈ 50.8 µg/mL); with Pseudomonas aeruginosa [5], 3.13 µM (≈ 1.59 µg/mL). The IC50 in assay [8] amounted to 5.8 nM.

`CC(=O)N1CCN(Cc2ccc(C#Cc3ccc(OCC4(C(=O)NO)CCOCC4)cc3)cc2)CC1`: the MIC was 25 µM (≈ 12.3 µg/mL) against Escherichia coli [2], 0.39 µM (≈ 0.192 µg/mL) with Escherichia coli [3], 50 µM (≈ 24.6 µg/mL) in the assay on Pseudomonas aeruginosa [4] and 0.78 µM (≈ 0.383 µg/mL) in the assay on Pseudomonas aeruginosa [5]. Further, in assay [8], the IC50 stood at 3 nM.

As for `CN1CCN(Cc2ccc(C#Cc3ccc(OCC4(C(=O)NO)CCOCC4)cc3)cc2)CC1`, the MIC against Escherichia coli [2] is 50 µM (≈ 23.2 µg/mL); against Escherichia coli [3], 3.13 µM (≈ 1.45 µg/mL); in the assay with Pseudomonas aeruginosa [4], 100 µM (≈ 46.4 µg/mL); against Pseudomonas aeruginosa [5] it was 1.56 µM (≈ 0.723 µg/mL). Further, in assay [8], it took 6.1 nM to reach half-maximal inhibition (IC50).

With `O=C(NO)C1(COc2ccc(C#Cc3ccc(CN4CCOCC4)cc3)cc2)CCC(O)CC1` (stereo not given), the MIC in the assay with Escherichia coli [2] was over 200 µM; against Escherichia coli [3], 25 µM (≈ 11.6 µg/mL); in the assay with Pseudomonas aeruginosa [4], over 200 µM; against Pseudomonas aeruginosa [5], 25 µM (≈ 11.6 µg/mL). This compound also registered an IC50 in assay [8] of 82.5 nM.

On to `O=C(NO)C1(C[S+]([O-])c2ccc(C#Cc3ccc(CN4CCOCC4)cc3)cc2)CCOCC1` (racemic), for which the MIC in the assay on Escherichia coli [2] was 1.56 µM (≈ 0.753 µg/mL); with Escherichia coli [3], under 0.2 µM; against Pseudomonas aeruginosa [4], 25 µM (≈ 12.1 µg/mL); in the assay with Pseudomonas aeruginosa [5], under 0.2 µM. For the same compound, the inhibition in [7] was found to be 96%; in assay [9] it was 97%. In addition, in assay [8], the IC50 stood at 3.1 nM.

With `O=C(NO)C1(COc2ccc(C#Cc3ccc(CN4CCOCC4)cc3)cc2)CCOCC1`, the MIC in the assay on Escherichia coli [2] amounted to 12.5 µM (≈ 5.63 µg/mL); in the assay with Escherichia coli [3], 1.56 µM (≈ 0.703 µg/mL); against Pseudomonas aeruginosa [4] it was 100 µM (≈ 45.1 µg/mL); in the assay on Pseudomonas aeruginosa [5], 1.56 µM (≈ 0.703 µg/mL). Besides, the results for the inhibition in assay [7] and in assay [9] were 82% and 94%, respectively. This compound showed an IC50 in [8] of 4.4 nM.

On to `O=C(CN1CCN(Cc2ccc(C#Cc3ccc(OCC4(C(=O)NO)CCOCC4)cc3)cc2)CC1)N1CCOCC1`, for which the MIC in the assay on Escherichia coli [2] was over 200 µM; in the assay with Escherichia coli [3] it was 25 µM (≈ 14.4 µg/mL); against Pseudomonas aeruginosa [4], over 200 µM; in the assay with Pseudomonas aeruginosa [5], 12.5 µM (≈ 7.21 µg/mL). This compound also registered a half-maximal inhibitory concentration (IC50) in assay [8] of 1.7 nM.

Turning to `CC(C)N1CCN(Cc2ccc(C#Cc3ccc(OCC4(C(=O)NO)CCOCC4)cc3)cc2)CC1`, the MIC came out at 100 µM (≈ 49.2 µg/mL) against Escherichia coli [2], 12.5 µM (≈ 6.15 µg/mL) in the assay with Escherichia coli [3], 100 µM (≈ 49.2 µg/mL) against Pseudomonas aeruginosa [4] and 3.13 µM (≈ 1.54 µg/mL) with Pseudomonas aeruginosa [5]. The IC50 in [8] turned out to be 7.5 nM.

Take `O=C(NO)C1(CSc2ccc(C#Cc3ccc(CN4CCOCC4)cc3)cc2)CCOCC1`: the MIC against Escherichia coli [2] was 3.13 µM (≈ 1.46 µg/mL); in the assay on Escherichia coli [3], under 0.2 µM; against Pseudomonas aeruginosa [4], 25 µM (≈ 11.7 µg/mL); in the assay on Pseudomonas aeruginosa [5], 0.39 µM (≈ 0.182 µg/mL). The compound further returned an IC50 in [8] of 0.2 nM.

The values are drawn from ChEMBL document CHEMBL3352564, “Synthesis, Structure, and SAR of Tetrahydropyran-Based LpxC Inhibitors” (ACS Med Chem Lett, 2014).
